The numbers were not newly measured in patent US20080171795A1, “Novel Inter and Intra Multilamellar Vesicular Composition” (LIFE-CARE INNOVATIONS PVT. LTD., priority 2005, published 2008), which cites them from elsewhere.

For data set [1] the following is noted: topical, skin with impaired stratum corneum barrier.
In data set [2] the test system is psoriasis. As to conditions: compared with dithranol.

Structures are written as SMILES. Where two headings read alike, the source gives them in different places.

For `O=C1c2c(O)cccc2Cc2cccc(O)c21` [Dithranol, 1,8-dihydroxyanthrone], the “Time to penetrate into the skin” value in data set [1] was 30 min. Also, the Solubility result (in acetone) is listed as “alcohol, ether, glacial acetic acid, sparingly”; the Solubility entry (in alcohol, ether, glacial acetic acid) is “slightly soluble”; the Solubility entry (in dilute solution of alkali hydroxides) is listed as “chloroform. dissolves in dilute solution of alkali”; the Solubility entry (in methylene chloride, chloroform) is “soluble in acetone, soluble in methylene chloride,”; the Solubility entry (in water) was “Practically insoluble”; the Solubility entry (in water, listed as dithranol) is recorded as “insoluble in water”.
Consider `CC(=O)Oc1cccc2cc3cccc(OC(C)=O)c3c(OC(C)=O)c12` [triacetyldithranol], for which, in data set [2], the Efficacy result was “compromised”; the Irritancy and staining entry was “reduced irritancy and staining”.
For `CCCC(=O)C1c2cccc(O)c2C(=O)c2c(O)cccc21` [butantrone, 10-butyryldithranol], in data set [2], the Efficacy entry is “compromised”; the Irritancy and staining result was “reduced irritancy and staining”.
